Values after ≈ are worked out from the molar mass of the structure shown. Numbered stars: 1 amine (or outer) side, 2 acyl side, 3 side chain; on linkers, the order of the positions; unused ones are H or OH. Bridge positions count the residues as written; N and C are the ends. Square brackets hold non-standard residues; d marks the D form. Peptide text beside a SMILES is read from it. * marks the point of attachment. Ileψ(thiazoline)Cys = CC[C@H](C)[C@H](N)C1=N[C@H](C(=O)*)CS1; NMePhe(4-NMe2) = CN[C@@H](Cc1ccc(N(C)C)cc1)C(=O)O; X1 = O=C([C@@H]1CC=C(CN2CCOCC2)CN1[*:1])[*:2]; Picolinoyl(3-OH) = O=C(c1ncccc1O)*; Phg = N[C@H](C(=O)O)c1ccccc1; dOrn = NCCC[C@@H](N)C(=O)O; dAbu = CC[C@@H](N)C(=O)O
Tested on: T1, CpaA
T1 construct: recombinant in E. coli BL21(DE3), pET vector, Ni-NTA purified
Assay: spectrophotometric steady-state kinetics
Assay type: biochemical, Paenibacillus sp. LC231
Conditions: 5 μM capreomycin, 50 mM HEPES pH 7.5, 150 mM NaCl, 0.1 mM EDTA, room temperature

| Compound | Km |
| --- | --- |
| CC(=O)SCCNC(=O)CCNC(=O)[C@H](O)C(C)(C)COP(=O)(O)OP(=O)(O)OC[C@H]1O[C@@H](n2cnc3c(N)ncnc32)[C@H](O)[C@@H]1OP(=O)(O)O [acetyl-CoA] | 39 ± 3 µM |

Tested on: T2, AAC(6′)-34
T2 construct: recombinant in E. coli BL21(DE3), pET vector, Ni-NTA purified
Assay: CoA liberation with DTDP, steady-state kinetics
Assay type: biochemical, Paenibacillus sp. LC231
Conditions: 35 μM sisomicin, 25 mM MES pH 6.0, 1 mM EDTA, 25 °C

| Compound | Km |
| --- | --- |
| CC(=O)SCCNC(=O)CCNC(=O)[C@H](O)C(C)(C)COP(=O)(O)OP(=O)(O)OC[C@H]1O[C@@H](n2cnc3c(N)ncnc32)[C@H](O)[C@@H]1OP(=O)(O)O [acetyl-CoA] | 220 ± 26 µM |

Same assay, conditions: 500 μM acetyl-CoA, 25 mM MES pH 6.0, 1 mM EDTA, 25 °C

| Compound | Km |
| --- | --- |
| CN[C@@H]1[C@@H](O)[C@@H](O[C@@H]2[C@@H](O)[C@H](O[C@H]3OC(CN)=CC[C@H]3N)[C@@H](N)C[C@H]2N)OC[C@]1(C)O [sisomicin] | 4.7 ± 0.4 µM |

Tested on: T3, MphI
T3 construct: recombinant in E. coli BL21(DE3), pET vector, Ni-NTA purified
Assay: steady-state kinetics
Assay type: biochemical, Paenibacillus sp. LC231
Conditions: 400 μM tylosin, 50 mM HEPES pH 7.5, 40 mM KCl, 10 mM MgCl2, 25 °C

| Compound | Km |
| --- | --- |
| Nc1nc2c(ncn2[C@@H]2O[C@H](COP(=O)(O)OP(=O)(O)OP(=O)(O)O)[C@@H](O)[C@H]2O)c(=O)[nH]1 [GTP] | 10 ± 1.8 µM |

Tested on: T4, Paenibacillus sp. LC231
T4 construct: LC231
Assay: microbe, parasite or virus in culture
Parameters: broth microdilution MIC, growth inhibition of Paenibacillus sp. LC231
Conditions: not given
Source text: (§1) We generated a quantitative antibiogram for Paenibacillus sp. LC231 for 40 different antibiotics that target diverse cellular processes and compared it with the susceptibility of a surface strain of Paenibacillus lautus ATCC 43898, the pathogen Staphylococcus aureus RN4220 and the environmental bacterium Kocuria rhizophila (formerly identified as Micrococcus luteus) (Supplementary Tables 1 and 2). […] Further experiments in this study investigate the molecular basis of resistance and not the contribution of each genetic determinant to the resistance phenotype of Paenibacillus sp. LC231. […] We focused our investigation on Paenibacillus sp. LC231 and determined that in addition to resistance to 14 classes of antibiotic, it inactivates 7 distinct classes.

| Compound | MIC |
| --- | --- |
| C[C@H]1O[C@H](O[C@H]2[C@H](O)[C@@H](O)[C@@H](O)[C@H](O)[C@@H]2O)[C@@H](N)C[C@@H]1N=C(N)C(=O)O [kasugamycin] | ≥ 128 µg/mL |
| CC[C@H](C)[C@H](N)C1=N[C@H](C(=O)N[C@@H](CC(C)C)C(=O)N[C@H](CCC(=O)O)C(=O)N[C@H](C(=O)N[C@H]2CCCCNC(=O)[C@H](CC(N)=O)NC(=O)[C@@H](CC(=O)O)NC(=O)[C@H](Cc3cnc[nH]3)NC(=O)[C@@H](Cc3ccccc3)NC(=O)[C@H]([C@@H](C)CC)NC(=O)[C@@H](CCCN)NC2=O)[C@@H](C)CC)CS1 [Bacitracin] ({Ileψ(thiazoline)Cys}-L[dE]IK[dOrn]I[dF]H[dD]N; lactam 4-C) | ≥ 128 µg/mL |
| CCCCCCCCCC(=O)N[C@@H](Cc1c[nH]c2ccccc12)C(=O)N[C@H](CC(N)=O)C(=O)N[C@@H](CC(=O)O)C(=O)N[C@@H]1C(=O)NCC(=O)N[C@@H](CCCN)C(=O)N[C@@H](CC(=O)O)C(=O)N[C@H](C)C(=O)N[C@@H](CC(=O)O)C(=O)NCC(=O)N[C@H](CO)C(=O)N[C@@H]([C@H](C)CC(=O)O)C(=O)N[C@@H](CC(=O)c2ccccc2N)C(=O)O[C@@H]1C [Daptomycin] | 16 µg/mL (≈ 9.87 µM) |
| C=C(NC(=O)C(=C)NC(=O)c1csc(C2=N[C@@H]3c4csc(n4)[C@H]4NC(=O)c5csc(n5)[C@H]([C@](C)(O)[C@@H](C)O)NC(=O)[C@H]5CSC(=N5)/C(=C/C)NC(=O)[C@H]([C@@H](C)O)NC(=O)c5csc(n5)[C@]3(CC2)NC(=O)[C@H](C)NC(=O)C(=C)NC(=O)[C@H](C)NC(=O)[C@H]([C@@H](C)CC)N[C@@H]2C=Cc3c([C@H](C)O)cc(nc3[C@H]2O)C(=O)O[C@@H]4C)n1)C(N)=O [Thiostrepton] | 0.25 µg/mL (≈ 0.15 µM) |

Tested on: T5, VatI
T5 construct: recombinant in E. coli BL21(DE3), pET vector, Ni-NTA purified
Assay: steady-state kinetics
Assay type: biochemical, Paenibacillus sp. LC231
Conditions: 100 μM flopristin, 50 mM HEPES pH 7.5, 150 mM NaCl, 0.1 mM EDTA, 25 °C

| Compound | Km |
| --- | --- |
| CC(=O)SCCNC(=O)CCNC(=O)[C@H](O)C(C)(C)COP(=O)(O)OP(=O)(O)OC[C@H]1O[C@@H](n2cnc3c(N)ncnc32)[C@H](O)[C@@H]1OP(=O)(O)O [acetyl-CoA] | 48 ± 3 µM |

Tested on: T4, Paenibacillus sp. LC231
Assay: microbe, parasite or virus in culture
Parameters: antibacterial susceptibility, minimal inhibitory concentration (quantitative antibiogram)
Conditions: not given
Remark: another data set of the same source
Source text: as §1

| Compound | MIC |
| --- | --- |
| CO[C@@H]1[C@@H](OC(N)=O)[C@@H](O)[C@H](Oc2ccc3c(O)c(NC(=O)c4ccc(O)c(CC=C(C)C)c4)c(=O)oc3c2C)OC1(C)C [Novobiocin] | 0.25 µg/mL (≈ 0.408 µM) |
| CC(=O)NC[C@H]1CN(c2ccc(N3CCOCC3)c(F)c2)C(=O)O1 [Linezolid] | 1 µg/mL (≈ 2.96 µM) |
| CN[C@@H]1[C@@H](O[C@H]2O[C@H](CO)[C@@H](N)[C@H](O)[C@H]2O)O[C@H]2C[C@@H](N)[C@@H](O[C@H]3[C@H](O)[C@@H](O)[C@H](N)C[C@@H]3N)O[C@@H]2[C@@H]1O [Apramycin] | 8 µg/mL (≈ 14.8 µM) |
| CC(=O)O[C@H]1C[C@@]2(C)[C@@H](C[C@@H](O)[C@H]3[C@@]4(C)CC[C@@H](O)[C@@H](C)[C@@H]4CC[C@@]32C)/C1=C(\CCC=C(C)C)C(=O)O [Fusidic acid] | 8 µg/mL (≈ 15.5 µM) |
| CC1=C\[C@@H](O)C[C@@H](F)Cc2nc(co2)C(=O)N2CCC[C@@H]2C(=O)O[C@H](C(C)C)[C@H](C)/C=C/C(=O)NC\C=C\1 [Flopristin] | 32 µg/mL (≈ 60.2 µM) |
| C[C@@H]1O[C@@H]1P(=O)(O)O [Fosfomycin] | ≥ 128 µg/mL |
| CO/N=C(\C(=O)N[C@@H]1C(=O)N2C(C(=O)O)=C(COC(C)=O)CS[C@H]12)c1csc(N)n1 [Cefotaxime] | 2 µg/mL (≈ 4.39 µM) |

Continued, values first:

| MIC | Compound |
| --- | --- |
| 32 µg/mL | N=C1NCCC([C@@H]2NC(=O)/C(=C/NC(N)=O)NC(=O)[C@H](CNC(=O)CC(N)CCCN)NC(=O)[C@H](CO)NC(=O)[C@@H](N)CNC2=O)N1 (mixture of isomers) [capreomycin] |
| 64 µg/mL (≈ 67.4 µM) | CC[C@H]1NC(=O)[C@@H](NC(=O)c2ncccc2O)[C@@H](C)OC(=O)[C@H](c2ccccc2)NC(=O)[C@@H]2CC=C(CN3CCOCC3)CN2C(=O)[C@H](Cc2ccc(N(C)C)cc2)N(C)C(=O)[C@@H]2CCCN2C1=O [linopristin] ({Picolinoyl(3-OH)}-T[dAbu]P[NMePhe(4-NMe2)][X1][Phg]; ester 1-C) |
| 32 µg/mL (≈ 64.8 µM) | C=C[C@]1(C)C[C@@H](OC(=O)CSCCN(CC)CC)[C@]2(C)[C@H](C)CC[C@]3(CCC(=O)[C@H]32)[C@@H](C)[C@@H]1O [Tiamulin] |
| ≥ 128 µg/mL | CN[C@@H]1[C@H](O[C@H]2[C@H](O[C@H]3[C@H](O)[C@@H](O)[C@H](N=C(N)N)[C@@H](O)[C@@H]3N=C(N)N)O[C@@H](C)[C@]2(O)C=O)O[C@@H](CO)[C@H](O)[C@H]1O [Streptomycin] |
| 32 µg/mL (≈ 68.4 µM) | NC[C@H]1O[C@H](O[C@H]2[C@H](O)[C@@H](O[C@H]3O[C@H](CO)[C@@H](O)[C@H](N)[C@H]3O)[C@H](N)C[C@@H]2N)[C@H](N)C[C@@H]1O [Tobramycin] |
| 1 µg/mL (≈ 0.69 µM) | CN[C@H](CC(C)C)C(=O)N[C@H]1C(=O)N[C@@H](CC(N)=O)C(=O)N[C@H]2C(=O)N[C@H]3C(=O)N[C@H](C(=O)N[C@H](C(=O)O)c4cc(O)cc(O)c4-c4cc3ccc4O)[C@H](O)c3ccc(c(Cl)c3)Oc3cc2cc(c3O[C@@H]2O[C@H](CO)[C@@H](O)[C@H](O)[C@H]2O[C@H]2C[C@](C)(N)[C@H](O)[C@H](C)O2)Oc2ccc(cc2Cl)[C@H]1O [Vancomycin] |
| 1 µg/mL (≈ 1.22 µM) | CO[C@H]1/C=C/O[C@@]2(C)Oc3c(C)c(O)c4c(O)c(c(/C=N/N5CCN(C)CC5)c(O)c4c3C2=O)NC(=O)/C(C)=C\C=C\[C@H](C)[C@H](O)[C@@H](C)[C@@H](O)[C@@H](C)[C@H](OC(C)=O)[C@@H]1C [rifampin] |

— article PMC5155152, “A diverse intrinsic antibiotic resistome from a cave bacterium” (Nature Communications, 2016)
